Publication PMC8518114, “Safety, tolerability and pharmacokinetics of emodepside, a potential novel treatment for onchocerciasis (river blindness), in healthy male subjects” (British Journal of Clinical Pharmacology, 2021)

Test system: healthy male subjects
Experiment: Safety: treatment-emergent adverse events, SAD study
Format: in vivo, human
Description: Safety was assessed by monitoring adverse events (AEs) throughout the studies that were coded using the standard Medical Dictionary for Regulatory Activities (MedDRA) dictionary (versions 19.0 [SAD part 1], 20.0 [SAD part 2] and 21.1 [MAD]). Other safety monitoring included 12‐lead electrocardiography recordings, measurement of vital signs (systolic and diastolic blood pressure and heart rate), physical and neurological (Hamilton depression rating scale[17] and Beck depression inventory‐II fastscreen[18] [SAD only], mental status examination, cranial nerves assessment and motor system examination, sensation to light touch, coordination/cerebellar function assessment, Romberg's test, gait test, daytime sleepiness assessment [SAD and MAD studies]) examinations, haematology, biochemistry and urinalysis. To minimise risks in the SAD and MAD studies, subjects were dosed sequentially using sentinels in each cohort (1 IP, 1 placebo) as per European Medicines Agency guidelines.[19] If the previous dose was well tolerated, with no safety concerns, dose escalation was decided by the Safety Review Group after reviewing safety and PK data from all available cohorts. Moreover, treatment with the highest dose in the SAD study was repeated (cohort 10) for regular ophthalmological evaluations (assessments available as supplementary information) to better characterise visual AEs observed in the SAD study. Regular ophthalmological assessments were also performed in the MAD study.

[1] = SAD Part 2, 10 mg LSF (fed) n = 6
[2] = SAD Part 2, 40 mg LSF (fasting) n = 6

CC(C)C[C@H]1C(=O)O[C@H](Cc2ccc(N3CCOCC3)cc2)C(=O)N(C)[C@@H](CC(C)C)C(=O)O[C@H](C)C(=O)N(C)[C@@H](CC(C)C)C(=O)O[C@H](Cc2ccc(N3CCOCC3)cc2)C(=O)N(C)[C@@H](CC(C)C)C(=O)O[C@H](C)C(=O)N1C [emodepside]
TEAE: Nervous system disorders (SAD Part 1, 10 mg LSF n = 6): 1 (16.7) n (%) | TEAE: Psychiatric disorders (SAD Part 1, 10 mg LSF n = 6): 0 n (%) | TEAE: Respiratory, thoracic and mediastinal disorders (SAD Part 1, 10 mg LSF n = 6): 1 (16.7) n (%) | Any TEAE (SAD Part 1, 20 mg IRT n = 6): 2 (33.3) n (%) | TEAE: Eye disorders (SAD Part 1, 20 mg IRT n = 6): 0 n (%) | TEAE: Gastrointestinal disorders (SAD Part 1, 20 mg IRT n = 6): 1 (16.7) n (%) | TEAE: General disorders and administration site disorders (SAD Part 1, 20 mg IRT n = 6): 0 n (%) | TEAE: Infections and infestations (SAD Part 1, 20 mg IRT n = 6): 0 n (%) | TEAE: Injury, poisoning and procedural complications (SAD Part 1, 20 mg IRT n = 6): 0 n (%) | TEAE: Musculoskeletal and connective tissue disorders (SAD Part 1, 20 mg IRT n = 6): 1 (16.7) n (%) | TEAE: Nervous system disorders (SAD Part 1, 20 mg IRT n = 6): 1 (16.7) n (%) | TEAE: Psychiatric disorders (SAD Part 1, 20 mg IRT n = 6): 0 n (%) | TEAE: Respiratory, thoracic and mediastinal disorders (SAD Part 1, 20 mg IRT n = 6): 1 (16.7) n (%) | Any TEAE (SAD Part 1, 20 mg LSF n = 6): 3 (50.0) n (%) | TEAE: Eye disorders (SAD Part 1, 20 mg LSF n = 6): 1 (16.7) n (%) | TEAE: Gastrointestinal disorders (SAD Part 1, 20 mg LSF n = 6): 0 n (%) | TEAE: General disorders and administration site disorders (SAD Part 1, 20 mg LSF n = 6): 0 n (%) | TEAE: Infections and infestations (SAD Part 1, 20 mg LSF n = 6): 1 (16.7) n (%) | TEAE: Injury, poisoning and procedural complications (SAD Part 1, 20 mg LSF n = 6): 1 (16.7) n (%) | TEAE: Musculoskeletal and connective tissue disorders (SAD Part 1, 20 mg LSF n = 6): 0 n (%) | TEAE: Nervous system disorders (SAD Part 1, 20 mg LSF n = 6): 1 (16.7) n (%) | TEAE: Psychiatric disorders (SAD Part 1, 20 mg LSF n = 6): 0 n (%) | TEAE: Respiratory, thoracic and mediastinal disorders (SAD Part 1, 20 mg LSF n = 6): 1 (16.7) n (%) | Any TEAE (SAD Part 1, 40 mg LSF n = 6): 5 (83.3) n (%) | TEAE: Eye disorders (SAD Part 1, 40 mg LSF n = 6): 5 (83.3) n (%) | TEAE: Gastrointestinal disorders (SAD Part 1, 40 mg LSF n = 6): 0 n (%) | TEAE: General disorders and administration site disorders (SAD Part 1, 40 mg LSF n = 6): 0 n (%) | TEAE: Infections and infestations (SAD Part 1, 40 mg LSF n = 6): 1 (16.7) n (%) | TEAE: Injury, poisoning and procedural complications (SAD Part 1, 40 mg LSF n = 6): 0 n (%) | TEAE: Musculoskeletal and connective tissue disorders (SAD Part 1, 40 mg LSF n = 6): 1 (16.7) n (%) | TEAE: Nervous system disorders (SAD Part 1, 40 mg LSF n = 6): 3 (50.0) n (%) | TEAE: Psychiatric disorders (SAD Part 1, 40 mg LSF n = 6): 0 n (%) | TEAE: Respiratory, thoracic and mediastinal disorders (SAD Part 1, 40 mg LSF n = 6): 0 n (%) | Any TEAE [1]: 3 (50.0) n (%) | TEAE: Eye disorders [1]: 0 n (%) | TEAE: Gastrointestinal disorders [1]: 0 n (%) | TEAE: General disorders and administration site disorders [1]: 0 n (%) | TEAE: Infections and infestations [1]: 0 n (%) | TEAE: Injury, poisoning and procedural complications [1]: 0 n (%) | TEAE: Musculoskeletal and connective tissue disorders [1]: 0 n (%) | TEAE: Nervous system disorders [1]: 2 (33.3) n (%) | TEAE: Psychiatric disorders [1]: 0 n (%) | TEAE: Respiratory, thoracic and mediastinal disorders [1]: 1 (16.7) n (%) | Any TEAE [2]: 5 (83.3) n (%) | TEAE: Eye disorders [2]: 5 (83.3) n (%) | TEAE: Gastrointestinal disorders [2]: 3 (50.0) n (%) | TEAE: General disorders and administration site disorders [2]: 3 (50.0) n (%) | TEAE: Infections and infestations [2]: 0 n (%) | TEAE: Injury, poisoning and procedural complications [2]: 0 n (%) | TEAE: Musculoskeletal and connective tissue disorders [2]: 1 (16.7) n (%) | TEAE: Nervous system disorders [2]: 4 (66.7) n (%) | TEAE: Psychiatric disorders [2]: 1 (16.7) n (%) | TEAE: Respiratory, thoracic and mediastinal disorders [2]: 1 (16.7) n (%) | Drug-related visual disorder TEAEs (SAD, 10 mg LSF in the fasting state): 2 subjects | Drug-related visual disorder TEAEs (SAD, 40 mg LSF in the fasting state): 5 subjects | Time to spontaneous resolution of drug-related visual disorder TEAEs (SAD, all mild): ≤ 24 h | Onset of drug-related visual disorder TEAEs post-dose (in vivo): 20 to 240 min | Onset of drug-related visual disorder TEAEs, most often (in vivo): 1 to 2.5 h
